According to ChEMBL document CHEMBL5665443, “Enzyme Inhibitor Single Concentration assay results for EUbOPEN Chemogenomics Library” (2024):

Legend:
Details in all cases: Compound Concentration 10.0 uM, Hit No
[1] = biological target: T1, Endonuclease III-like protein 1 (Homo sapiens) (UniProt P78549);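 note: enzyme assay tracking NTHL1 cutting and release of a quenched double-stranded DNA oligo substrate, read as fluorescence at 594 nm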
T1 sequence (whole entry): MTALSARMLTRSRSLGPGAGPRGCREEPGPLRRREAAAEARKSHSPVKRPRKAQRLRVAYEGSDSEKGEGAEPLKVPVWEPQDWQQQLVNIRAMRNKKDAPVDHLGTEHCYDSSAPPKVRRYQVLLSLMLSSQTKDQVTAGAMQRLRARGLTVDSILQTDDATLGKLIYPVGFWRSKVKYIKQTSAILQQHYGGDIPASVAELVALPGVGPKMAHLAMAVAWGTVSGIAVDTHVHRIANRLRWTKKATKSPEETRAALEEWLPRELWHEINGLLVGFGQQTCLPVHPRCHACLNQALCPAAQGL
Description: Inhibition of NTHL1 by quantifying inhibition of NTHL1-mediated cleavage and dissociation of quenched duplex DNA oligonucleotides, measured as fluorescence at 594 nm.

[2] = biological target: Uracil-DNA glycosylase (Homo sapiens) (UniProt P13051);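 note: UNG excision on a quenched double-stranded DNA oligo probe, with APE1 added for strand incision and turnover, read as fluorescence at 594 nm as strands separate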
Sequence of Uracil-DNA glycosylase (Homo sapiens) (P13051 whole entry, the tested form may be a part): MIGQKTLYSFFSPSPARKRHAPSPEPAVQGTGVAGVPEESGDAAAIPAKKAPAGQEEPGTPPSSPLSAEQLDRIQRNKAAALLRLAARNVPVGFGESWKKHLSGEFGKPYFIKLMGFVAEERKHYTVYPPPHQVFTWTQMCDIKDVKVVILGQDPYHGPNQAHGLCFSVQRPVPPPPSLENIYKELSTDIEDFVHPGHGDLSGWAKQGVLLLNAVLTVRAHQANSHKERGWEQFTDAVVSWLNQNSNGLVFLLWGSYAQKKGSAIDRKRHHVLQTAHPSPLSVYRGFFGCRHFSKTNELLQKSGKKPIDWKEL
Description: Inhibition of UNG by quantifying inhibition of UNG-mediated cleavage and dissociation of quenched duplex DNA oligonucleotides, measured as fluorescence at 594 nm. To generate a functional strand incision and increase turn-over this assay is coupled to APE1.

[3] = biological target: Methyl-CpG-binding domain protein 4 (Homo sapiens) (UniProt O95243);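 note: MBD4 activity read as fluorescence at 594 nm from cleavage and release of a quenched duplex DNA oligonucleotide, with APE1 coupled to incise the strand and raise turnover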
Sequence of Methyl-CpG-binding domain protein 4 (Homo sapiens) (O95243 whole entry, the tested form may be a part): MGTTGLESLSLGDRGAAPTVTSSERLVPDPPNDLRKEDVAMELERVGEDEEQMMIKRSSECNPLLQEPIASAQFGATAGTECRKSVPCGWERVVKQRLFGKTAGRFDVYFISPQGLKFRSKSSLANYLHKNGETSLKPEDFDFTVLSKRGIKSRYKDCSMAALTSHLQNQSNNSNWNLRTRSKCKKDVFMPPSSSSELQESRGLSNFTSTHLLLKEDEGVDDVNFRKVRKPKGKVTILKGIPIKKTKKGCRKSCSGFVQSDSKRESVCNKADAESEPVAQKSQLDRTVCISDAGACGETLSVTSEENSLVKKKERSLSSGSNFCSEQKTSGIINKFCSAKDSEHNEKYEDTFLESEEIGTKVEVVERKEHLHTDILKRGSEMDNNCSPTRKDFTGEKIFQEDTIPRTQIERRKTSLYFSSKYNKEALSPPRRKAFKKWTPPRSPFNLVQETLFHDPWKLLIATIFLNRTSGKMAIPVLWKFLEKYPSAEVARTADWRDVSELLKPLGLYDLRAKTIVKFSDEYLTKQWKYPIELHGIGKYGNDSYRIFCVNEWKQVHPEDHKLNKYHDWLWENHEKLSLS
Description: Inhibition of MBD4 by quantifying inhibition of MBD4-mediated cleavage and dissociation of quenched duplex DNA oligonucleotides, measured as fluorescence at 594 nm. To generate a functional strand incision and increase turn-over this assay is coupled to APE1.

[4] = biological target: T2, Single-strand selective monofunctional uracil DNA glycosylase (Homo sapiens) (UniProt Q53HV7);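 note: enzymatic SMUG1 assay coupled with APE1, reading fluorescence at 594 nm released when a quenched double-stranded DNA oligonucleotide substrate is cleaved and separated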
T2 sequence (whole entry): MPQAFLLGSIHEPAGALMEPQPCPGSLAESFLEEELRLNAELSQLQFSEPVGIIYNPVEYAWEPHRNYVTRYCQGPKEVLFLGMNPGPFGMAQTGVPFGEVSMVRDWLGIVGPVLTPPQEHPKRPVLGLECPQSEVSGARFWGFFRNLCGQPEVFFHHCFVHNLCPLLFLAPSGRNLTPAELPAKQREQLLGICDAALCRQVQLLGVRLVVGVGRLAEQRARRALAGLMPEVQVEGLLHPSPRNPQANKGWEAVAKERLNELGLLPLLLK
Description: Inhibition of SMUG1 by quantifying inhibition of SMUG1-mediated cleavage and dissociation of quenched duplex DNA oligonucleotides, measured as fluorescence at 594 nm. To generate a functional strand incision and increase turn-over this assay is coupled to APE1.

[5] = biological target: Endonuclease 8-like 1 (Homo sapiens) (UniProt Q96FI4);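 note: fluorescence at 594 nm from quenched duplex DNA oligonucleotides released by NEIL1 cleavage and strand separation, reported as reduction of this enzyme activity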
Sequence of Endonuclease 8-like 1 (Homo sapiens) (Q96FI4 whole entry): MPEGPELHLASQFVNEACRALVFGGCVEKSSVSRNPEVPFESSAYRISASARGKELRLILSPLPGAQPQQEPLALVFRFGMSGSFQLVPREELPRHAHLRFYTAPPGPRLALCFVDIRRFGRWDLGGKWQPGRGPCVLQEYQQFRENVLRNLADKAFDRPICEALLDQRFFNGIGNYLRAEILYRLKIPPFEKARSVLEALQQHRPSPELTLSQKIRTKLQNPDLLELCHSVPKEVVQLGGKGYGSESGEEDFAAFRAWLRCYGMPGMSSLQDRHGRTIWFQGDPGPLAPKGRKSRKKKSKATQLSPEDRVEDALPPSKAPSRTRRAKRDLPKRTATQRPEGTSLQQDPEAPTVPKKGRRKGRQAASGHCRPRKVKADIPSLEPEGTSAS
Description: Inhibition of NEIL1 by quantifying inhibition of NEIL1-mediated cleavage and dissociation of quenched duplex DNA oligonucleotides, measured as fluorescence at 594 nm.

[6] = biological target: T3, Endonuclease 8-like 2 (Homo sapiens) (UniProt Q969S2);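 note: fluorescence at 594 nm reports NEIL2 cutting and release of a quenched double-stranded DNA oligo substrate, reduced signal read as inhibition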
T3 sequence (whole entry): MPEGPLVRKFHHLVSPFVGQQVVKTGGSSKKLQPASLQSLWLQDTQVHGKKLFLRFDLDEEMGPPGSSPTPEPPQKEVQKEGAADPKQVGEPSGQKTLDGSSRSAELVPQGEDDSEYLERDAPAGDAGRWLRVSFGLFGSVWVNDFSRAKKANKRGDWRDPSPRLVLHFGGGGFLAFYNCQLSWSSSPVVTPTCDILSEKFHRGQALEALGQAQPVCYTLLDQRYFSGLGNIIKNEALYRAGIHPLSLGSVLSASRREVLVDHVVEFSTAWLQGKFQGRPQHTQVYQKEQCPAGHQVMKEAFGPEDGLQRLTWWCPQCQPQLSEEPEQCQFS
Description: Inhibition of NEIL2 by quantifying inhibition of NEIL2-mediated cleavage and dissociation of quenched duplex DNA oligonucleotides, measured as fluorescence at 594 nm.

[7] = biological target: G/T mismatch-specific thymine DNA glycosylase (Homo sapiens) (UniProt Q13569);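 note: human TDG cleavage of quenched duplex DNA oligonucleotides coupled to APE1, strand release read as fluorescence at 594 nm, inhibition of TDG activity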
Sequence of G/T mismatch-specific thymine DNA glycosylase (Homo sapiens) (Q13569 whole entry): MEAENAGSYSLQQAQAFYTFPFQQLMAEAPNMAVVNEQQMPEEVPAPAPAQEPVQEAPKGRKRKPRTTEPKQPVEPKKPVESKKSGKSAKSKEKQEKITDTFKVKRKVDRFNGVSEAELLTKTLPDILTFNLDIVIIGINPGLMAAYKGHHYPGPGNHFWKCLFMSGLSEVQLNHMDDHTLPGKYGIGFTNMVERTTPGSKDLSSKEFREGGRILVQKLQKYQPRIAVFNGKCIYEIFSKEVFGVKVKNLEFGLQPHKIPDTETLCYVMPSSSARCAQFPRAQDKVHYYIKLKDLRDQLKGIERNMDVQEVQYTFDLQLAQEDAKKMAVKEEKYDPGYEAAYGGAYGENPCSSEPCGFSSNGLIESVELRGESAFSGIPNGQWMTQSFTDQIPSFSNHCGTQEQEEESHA
Description: Inhibition of TDG by quantifying inhibition of TDG-mediated cleavage and dissociation of quenched duplex DNA oligonucleotides, measured as fluorescence at 594 nm. To generate a functional strand incision and increase turn-over this assay is coupled to APE1.

[8] = biological target: T4, Adenine DNA glycosylase (Homo sapiens) (UniProt Q9UIF7);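 note: human MUTYH activity read as 594 nm fluorescence from cleavage and release of a quenched DNA duplex, coupled with APE1 for strand incision, lower signal meaning inhibition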
T4 sequence (whole entry): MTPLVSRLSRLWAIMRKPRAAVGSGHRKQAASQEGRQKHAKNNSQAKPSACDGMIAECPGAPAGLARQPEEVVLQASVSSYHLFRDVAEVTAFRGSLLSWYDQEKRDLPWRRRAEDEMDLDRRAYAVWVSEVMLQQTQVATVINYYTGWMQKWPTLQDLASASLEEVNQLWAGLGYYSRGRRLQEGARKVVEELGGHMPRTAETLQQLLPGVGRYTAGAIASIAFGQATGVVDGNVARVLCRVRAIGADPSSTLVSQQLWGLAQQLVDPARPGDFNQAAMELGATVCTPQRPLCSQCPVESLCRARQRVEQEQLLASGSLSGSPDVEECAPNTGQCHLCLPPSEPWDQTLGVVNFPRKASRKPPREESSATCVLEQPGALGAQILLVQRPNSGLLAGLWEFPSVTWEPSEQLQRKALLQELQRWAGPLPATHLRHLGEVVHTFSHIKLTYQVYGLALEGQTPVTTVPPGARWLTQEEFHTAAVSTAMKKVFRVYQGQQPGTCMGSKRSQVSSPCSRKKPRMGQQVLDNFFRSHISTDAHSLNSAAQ
Description: Inhibition of MUTYH by quantifying inhibition of MUTYH-mediated cleavage and dissociation of quenched duplex DNA oligonucleotides, measured as fluorescence at 594 nm. To generate a functional strand incision and increase turn-over this assay is coupled to APE1.

[9] = biological target: DNA-3-methyladenine glycosylase (Homo sapiens) (UniProt P29372);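 note: enzyme assay where MPG cuts a quenched duplex DNA oligonucleotide probe, paired with APE1 for strand incision and turnover, read as fluorescence at 594 nm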
Sequence of DNA-3-methyladenine glycosylase (Homo sapiens) (P29372 whole entry): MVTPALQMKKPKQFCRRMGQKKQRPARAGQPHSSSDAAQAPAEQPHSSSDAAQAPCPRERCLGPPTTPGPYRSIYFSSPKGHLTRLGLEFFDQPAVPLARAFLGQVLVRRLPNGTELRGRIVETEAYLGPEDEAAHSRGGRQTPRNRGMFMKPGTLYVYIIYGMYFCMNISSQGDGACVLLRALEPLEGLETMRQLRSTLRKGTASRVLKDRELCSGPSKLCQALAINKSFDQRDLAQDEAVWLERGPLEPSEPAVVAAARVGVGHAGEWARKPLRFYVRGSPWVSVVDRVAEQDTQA
Description: Inhibition of MPG by quantifying inhibition of MPG-mediated cleavage and dissociation of quenched duplex DNA oligonucleotides, measured as fluorescence at 594 nm. To generate a functional strand incision and increase turn-over this assay is coupled to APE1.

With `CN(C)CCCc1cc(C(=O)Nc2ccc(-c3ccncc3)cc2)ccc1O` the inhibition [1] was 12.1%, the inhibition [2] was -0.815% and the inhibition [3] was 15.3%. It also gave an inhibition [4] of 1.23%, an inhibition [5] of 0.602% and an inhibition [6] of 8.82%. For the same compound, the inhibition [7] was 22.9%, the inhibition [8] was 5.24% and the inhibition [9] was 5.48%.
With `CNc1nc(-c2ccc3c(N)n[nH]c3c2)cc(N2C[C@@H](C(=O)NC3CCCCC3)CC[C@H]2C)n1` the inhibition [1] was -2%, the inhibition [2] was 5.37% and the inhibition [3] was 21.4%. It also gave an inhibition [4] of 20.7%, an inhibition [5] of 3.84% and an inhibition [6] of -5.15%. For the same compound, the inhibition [7] was 57.1%, the inhibition [8] was 25.6% and the inhibition [9] was 23.1%.
Compound `COc1cc(OC2CCN(C(C)=O)CC2)ccc1C(=O)N1CCC(N2C(=O)OCc3ccccc32)CC1` has an inhibition [1] of 24.5%, an inhibition [2] of -2.76% and an inhibition [3] of 5.95%. For the same compound, the inhibition [4] was -0.579%, the inhibition [5] was 2.08% and the inhibition [6] was 5.25%. The inhibition [7] was 20.8%, the inhibition [8] was 48.1% and the inhibition [9] was -3.3%.
Work on `Cc1nnc2ccc(-c3cccc(C(F)(F)F)c3)nn12` yielded an inhibition [1] of 22%, an inhibition [2] of -4.72% and an inhibition [3] of 9.3%. It also gave an inhibition [4] of -2.84%, an inhibition [5] of 1.34% and an inhibition [6] of -0.86%. It also gave an inhibition [7] of 5.5%, an inhibition [8] of -2.78% and an inhibition [9] of -6.43%.
In the case of `CO[C@H]1CC=C2CCN3CCC4=C(CC(=O)OC4)[C@]23C1`, the inhibition [1] is reported as -0.258%, the inhibition [2] is reported as -6.82% and the inhibition [3] is reported as 5.26%. For the same compound, the inhibition [4] was -2.5%, the inhibition [5] was -3.1% and the inhibition [6] was -5.96%. The inhibition [7] was -1.81%, the inhibition [8] was 1.14% and the inhibition [9] was -7.01%.
`COCc1nc2cnc3cc(-c4c(C)noc4C)c(OC[C@H]4CCNC4)cc3c2n1[C@H](C)c1ccccc1` showed an inhibition [1] of -9.18%, an inhibition [2] of -1.93% and an inhibition [3] of 57.4%. For the same compound, the inhibition [4] was -7.21%, the inhibition [5] was -6.95% and the inhibition [6] was -1.25%. The inhibition [7] was 54.7%, the inhibition [8] was 2.41% and the inhibition [9] was -8.22%.
Work on `O=C(Nc1cc(-c2ccccc2)nn1-c1ccccc1F)c1ccc([N+](=O)[O-])cc1` yielded an inhibition [1] of 24.5%, an inhibition [2] of -0.319% and an inhibition [3] of -1.82%. The inhibition [4] was -6.29%, the inhibition [5] was -2.66% and the inhibition [6] was 2.96%. For the same compound, the inhibition [7] was -4.55%, the inhibition [8] was 7.68% and the inhibition [9] was 9.2%.
`COC(=O)N1CCN(C(=O)Cc2ccc(Cl)c(Cl)c2)C(CN2CCCC2)C1` (stereo not drawn) showed an inhibition [1] of 19.6%, an inhibition [2] of -7.49% and an inhibition [3] of 11.3%. It also gave an inhibition [4] of -9.51%, an inhibition [5] of 4.16% and an inhibition [6] of 0.414%. It also gave an inhibition [7] of -7.07%, an inhibition [8] of 4.69% and an inhibition [9] of -2.31%.
`COc1cc(C(=O)N(CCC2CCCN2C)C/C(C)=C/c2ccccc2F)cc(OC)c1OC` (stereo not drawn) gave an inhibition [1] of -5.21%, an inhibition [2] of -3.28% and an inhibition [3] of -5.37%. For the same compound, the inhibition [4] was -3.01%, the inhibition [5] was 4.16% and the inhibition [6] was -1.62%. It also gave an inhibition [7] of 0.239%, an inhibition [8] of -4.18% and an inhibition [9] of -9.88%.
Work on `CN[C@@H](C)C/C=C/c1cncc(OC(C)C)c1` yielded an inhibition [1] of 4.7%, an inhibition [2] of -5.51% and an inhibition [3] of 1.46%. It also gave an inhibition [4] of -1.2%, an inhibition [5] of -3.1% and an inhibition [6] of 6.78%. It also gave an inhibition [7] of 4.54%, an inhibition [8] of 16.8% and an inhibition [9] of -3.71%.
With `O=S1(=O)NCN(C2CC2)c2ccc(F)cc21` the inhibition [1] was 10.5%, the inhibition [2] was -3.37% and the inhibition [3] was 0.854%. The inhibition [4] was -1.26%, the inhibition [5] was 3.86% and the inhibition [6] was 8.57%. For the same compound, the inhibition [7] was 10.8%, the inhibition [8] was 6.74% and the inhibition [9] was 3.15%.
Work on `N#Cc1cccc(-c2nc(-c3cccnc3)no2)c1` yielded an inhibition [1] of -1.08%, an inhibition [2] of -2.96% and an inhibition [3] of -5.03%. The inhibition [4] was -8.21%, the inhibition [5] was 2.53% and the inhibition [6] was -2.39%. For the same compound, the inhibition [7] was -5.18%, the inhibition [8] was -6.2% and the inhibition [9] was -9.43%.
